From the SangsterLogP compilation

Assay: method code G-GLC, from DOI: 10.1021/es00162a015, PMID: 19995068

SMILES	logP
Cc1ccc(-c2ccccc2)cc1	4.63
Clc1c(Cl)c(Cl)c2c(c1Cl)Oc1ccccc1O2	6.2
Brc1ccc(-c2ccccc2)cc1	4.96
Brc1ccc(Br)c(-c2cc(Br)c(Br)cc2Br)c1	7.1
Brc1ccccc1-c1ccccc1	4.59
Brc1c(Br)c(Br)c(-c2c(Br)c(Br)c(Br)c(Br)c2Br)c(Br)c1Br	8.58
Brc1ccc(-c2ccc(Br)cc2)cc1	5.72
Clc1ccc2c(c1)Oc1ccccc1O2	4.94
Cc1ccc(-c2ccc(C)cc2)cc1	5.09
Clc1ccc2oc3ccc(Cl)cc3c2c1	5.44
Brc1cccc(-c2ccccc2)c1	4.85
